Assay type in all cases: in vivo
For assay [1], the system named is Pseudoperonospora cubensis. The assay can be described thus: Cucumber Downy Mildew (PSPECU), foliar spray, percent disease control. Particulars: read-out: PSPECU percent control.
For a further assay, the system named is Cochliobolus sativus. Description: Spot Blotch of Wheat (COCHSA), foliar spray, percent disease control. Particulars: Bipolaris sorokiniana, read-out: COCHSA percent control.
Assay [2] deals with DROSME, AEDSAE, LAPHEG, or HELIVI. The assay can be described thus: Insecticidal activity, active if any of DROSME, AEDSAE, LAPHEG or HELIVI was controlled at 80% or more. Particulars: read-out: >80% mortality on any insect species @ 4000 ppm.
Another assay relates to Colletotricum lagenarium. Description: Cucumber Anthracnose (COLLLA), foliar spray, percent disease control.

Structures are written as SMILES. Like-named read-outs stand apart in the source and are kept apart here.

As for `COCCOc1cc(C(F)(F)F)cc(Oc2ccc(CCNc3ncnc4nccnc34)cc2)n1` [Compound 91, (2-{4-[6-(2-Methoxyethoxy)-4-trifluoromethyl-pyridin-2-yloxy]-phenyl}-ethyl)-pteridin-4-yl-amine], the values for the pest or weed control at 200 µg/mL (in assay [1] (foliar); in the assay with Cochliobolus sativus (foliar); with Colletotricum lagenarium (foliar)) were 80 to 100%, 0 to 49% and 0 to 49%, respectively. In addition, the pest or weed control at 4000 ppm in assay [2] is > 80%.
Take `Fc1cc(C(F)(F)F)ccc1Oc1ccc(CCNc2ncnc3nccnc23)cc1` [Compound 113]: the pest or weed control at 200 µg/mL in assay [1] (foliar) fell in the range of 80 to 100%; in the assay with Cochliobolus sativus (foliar), 0 to 49%; with Colletotricum lagenarium (foliar) it was 0 to 49%. Besides, in assay [2], the pest or weed control at 4000 ppm is > 80%.
On to `CCOc1cc(CCNc2ncnc3nccnc23)ccc1Oc1ccc(C(F)(F)F)cn1` [Compound 157], for which the figures for the pest or weed control at 200 µg/mL (in assay [1] (foliar); with Cochliobolus sativus (foliar); in the assay with Colletotricum lagenarium (foliar)) were 80 to 100%, 0 to 49% and 0 to 49%, respectively. Moreover, in assay [2], the pest or weed control at 4000 ppm is > 80%.
Take `Cc1cnc(Oc2ccc(CCNc3ncnc4nccnc34)cc2)s1` [Compound 66]: the pest or weed control at 200 µg/mL was in the range of 80 to 100% in assay [1] (foliar), 50 to 79% in the assay with Cochliobolus sativus (foliar) and 80 to 100% in the assay on Colletotricum lagenarium (foliar). Moreover, in assay [2], the pest or weed control at 4000 ppm was > 80%.
In the case of `Fc1cccc(Oc2ccc(CCNc3ncnc4nccnc34)cc2)n1` [Compound 7, {2-[4-(6-Fluoropyridin-2-yloxy)-phenyl]-ethyl}-pteridin-4-ylamine], the pest or weed control at 200 µg/mL fell in the range of 80 to 100% in assay [1] (foliar), 0 to 49% with Cochliobolus sativus (foliar) and 0 to 49% in the assay on Colletotricum lagenarium (foliar). The pest or weed control at 4000 ppm in assay [2] is > 80%.
As to `c1cnc(Oc2ccc(CCNc3ncnc4nccnc34)cc2)nc1` [Compound 15], the values for the pest or weed control at 200 µg/mL (in assay [1] (foliar); in the assay with Cochliobolus sativus (foliar); with Colletotricum lagenarium (foliar)) were 80 to 100%, 0 to 49% and 0 to 49%, respectively. For the same molecule, the pest or weed control at 4000 ppm in assay [2] is > 80%.
In the case of `Cc1nc(NCCc2ccc(Oc3ncc(C(F)(F)F)cc3F)cc2)c2nc(C)c(C)nc2n1` [Compound 214], the pest or weed control at 200 µg/mL (in assay [1] (foliar spray); with Cochliobolus sativus (foliar spray); with Colletotricum lagenarium (foliar spray)) was 0 to 49% each time. In assay [2], the pest or weed control at 4000 ppm was > 80%.
In the case of `FC(F)(F)c1ccnc(Oc2ccc(CCNc3ncnc4nccnc34)cc2Br)c1` [Compound 212, {2-[3-bromo-4-(4-trifluoromethylpyridin-2-yloxy)-phenyl]-ethyl}-pteridin-4-yl-amine], the pest or weed control at 200 µg/mL in assay [1] (foliar spray) was 80 to 100%; in the assay on Cochliobolus sativus (foliar spray) it was 50 to 79%; in the assay on Colletotricum lagenarium (foliar spray), 80 to 100%. Further, the pest or weed control at 4000 ppm in assay [2] was > 80%.
Turning to `Cc1cc(Oc2cc(C(C)(F)F)ccn2)c(C)cc1CCNc1ncnc2nccnc12` [Compound 194], the pest or weed control at 200 µg/mL lay in the range of 80 to 100% in assay [1] (foliar), 0 to 49% in the assay on Cochliobolus sativus (foliar) and 80 to 100% in the assay on Colletotricum lagenarium (foliar). Also, the pest or weed control at 4000 ppm in assay [2] is > 80%.
Turning to `c1csc(Oc2ccc(CCNc3ncnc4nccnc34)cc2)n1` [Compound 48], the pest or weed control at 200 µg/mL in assay [1] (foliar) was in the range of 80 to 100%; in the assay with Cochliobolus sativus (foliar), 0 to 49%; in the assay on Colletotricum lagenarium (foliar) it was 0 to 49%. In addition, the pest or weed control at 4000 ppm in assay [2] was > 80%.
With `c1ccc(COc2ccc(CCOc3ccc(CCNc4ncnc5nccnc45)cc3)cc2)cc1` [Compound 140, (2-{4-[2-(4-Benzyloxy-phenyl)-ethoxy]-phenyl}-ethyl)-pteridin-4-yl-amine], the pest or weed control at 200 µg/mL in assay [1] (foliar) was in the range of 80 to 100%; with Cochliobolus sativus (foliar), 0 to 49%; in the assay on Colletotricum lagenarium (foliar), 50 to 79%. Further, the pest or weed control at 4000 ppm in assay [2] was > 80%.
On to `CC(C)(C)OC(=O)c1ccc(Oc2ccc(CCNc3ncnc4nccnc34)cc2)nc1` [Compound 165], for which the pest or weed control at 200 µg/mL in assay [1] (foliar) fell in the range of 80 to 100%; in the assay with Cochliobolus sativus (foliar), 0 to 49%; in the assay with Colletotricum lagenarium (foliar), 0 to 49%. Besides, the pest or weed control at 4000 ppm in assay [2] is > 80%.
Take `CC(C)OC(=O)c1cnc(Oc2ccc(CCNc3ncnc4nccnc34)cc2)c(Cl)c1` [Compound 164]: the pest or weed control at 200 µg/mL (in assay [1] (foliar); with Cochliobolus sativus (foliar); in the assay on Colletotricum lagenarium (foliar)) was 0 to 49% in each case. Besides, the pest or weed control at 4000 ppm in assay [2] is > 80%.
Turning to `COc1cc(CCNc2ncnc3nccnc23)ccc1Oc1cc(C(C)C)ccn1` [Compound 204], the pest or weed control at 200 µg/mL lay within 80 to 100% in assay [1] (foliar spray), 0 to 49% in the assay with Cochliobolus sativus (foliar spray) and 0 to 49% with Colletotricum lagenarium (foliar spray). In assay [2], the pest or weed control at 4000 ppm is > 80%.
For the molecule `Brc1ccc(Oc2ccc(CCNc3ncnc4nccnc34)cc2)cn1` [Compound 110], the pest or weed control at 200 µg/mL in assay [1] (foliar) was 80 to 100%; in the assay on Cochliobolus sativus (foliar) it was 0 to 49%; with Colletotricum lagenarium (foliar), 0 to 49%. In addition, in assay [2], the pest or weed control at 4000 ppm was > 80%.
As for `Cc1cc(CCNc2ncnc3nccnc23)ccc1Oc1cc(C(F)(F)F)ccn1` [Compound 109], the pest or weed control at 200 µg/mL in assay [1] (foliar) lay in the range of 80 to 100%; in the assay with Cochliobolus sativus (foliar), 0 to 49%; with Colletotricum lagenarium (foliar) it was 50 to 79%. For the same molecule, the pest or weed control at 4000 ppm in assay [2] was > 80%.
In the case of `Cc1nc2ncnc(NCCc3ccc(Oc4cc(C(F)(F)F)ccn4)cc3)c2nc1C` [Compound 162], the values for the pest or weed control at 200 µg/mL (in assay [1] (foliar); in the assay on Cochliobolus sativus (foliar); in the assay with Colletotricum lagenarium (foliar)) were 80 to 100%, 0 to 49% and 0 to 49%, respectively. For the same molecule, the pest or weed control at 4000 ppm in assay [2] was > 80%.
On to `Cc1cnc2ncnc(NCCc3ccc(Oc4ccc(C#N)cn4)cc3)c2n1` [Compound 52], for which the results for the pest or weed control at 200 µg/mL (in assay [1] (foliar); with Cochliobolus sativus (foliar); in the assay with Colletotricum lagenarium (foliar)) were 80 to 100%, 0 to 49% and 0 to 49%, respectively. The pest or weed control at 4000 ppm in assay [2] was > 80%.
On to `Cc1c(CCNc2ncnc3nccnc23)ccc(Oc2ccc(C(F)(F)F)cn2)c1C` [Compound 144], for which the values for the pest or weed control at 200 µg/mL (in assay [1] (foliar); with Cochliobolus sativus (foliar); in the assay on Colletotricum lagenarium (foliar)) were 80 to 100%, 0 to 49% and 0 to 49%, respectively. For the same molecule, the pest or weed control at 4000 ppm in assay [2] is > 80%.
Regarding `Cc1cccc(Oc2ccc(CCNc3ncnc4nccnc34)cc2)n1` [Compound 39], the pest or weed control at 200 µg/mL in assay [1] (foliar) lay in the range of 80 to 100%; with Cochliobolus sativus (foliar) it was 0 to 49%; in the assay with Colletotricum lagenarium (foliar) it was 0 to 49%. The pest or weed control at 4000 ppm in assay [2] is > 80%.
Take `COc1cc(CCNc2ncnc3nccnc23)ccc1Oc1ccc(C#N)cn1` [Compound 50]: the pest or weed control at 200 µg/mL is 80 to 100% in assay [1] (foliar), 0 to 49% with Cochliobolus sativus (foliar) and 0 to 49% in the assay on Colletotricum lagenarium (foliar). Besides, in assay [2], the pest or weed control at 4000 ppm was > 80%.
Consider `COc1cc(CCNc2ncnc3nccnc23)ccc1Oc1cc(C(F)(F)F)ccn1` [Compound 51], for which the pest or weed control at 200 µg/mL fell in the range of 80 to 100% in assay [1] (foliar), 0 to 49% in the assay on Cochliobolus sativus (foliar) and 50 to 79% in the assay on Colletotricum lagenarium (foliar). For the same molecule, the pest or weed control at 4000 ppm in assay [2] was > 80%.
`O=C(c1ccc(Oc2ccc(CCNc3ncnc4nccnc34)cc2)nc1)C1CC1` [Compound 30]: the pest or weed control at 200 µg/mL was 50 to 79% in assay [1] (foliar), 0 to 49% in the assay on Cochliobolus sativus (foliar) and 0 to 49% in the assay with Colletotricum lagenarium (foliar). The pest or weed control at 4000 ppm in assay [2] was > 80%.
As for `COc1ccc(CCNc2ncnc3nc(C)c(C)nc23)cc1` [Compound 131], the pest or weed control at 200 µg/mL in assay [1] (foliar) lay in the range of 80 to 100%; in the assay on Cochliobolus sativus (foliar), 0 to 49%; in the assay with Colletotricum lagenarium (foliar) it was 0 to 49%. Also, the pest or weed control at 4000 ppm in assay [2] was > 80%.
With `Cc1cnc2ncnc(NCCc3ccc(Oc4nccc(C(F)(F)F)n4)cc3)c2n1` [Compound 55], the pest or weed control at 200 µg/mL is 80 to 100% in assay [1] (foliar), 0 to 49% in the assay with Cochliobolus sativus (foliar) and 50 to 79% with Colletotricum lagenarium (foliar). Moreover, the pest or weed control at 4000 ppm in assay [2] is > 80%.
In the same order, the values of `Fc1c(F)c(C(F)(F)F)c(F)c(F)c1Oc1ccc(CCNc2ncnc3nccnc23)cc1` [Compound 112] are 80 to 100%, 0 to 49%, 0 to 49% and > 80%.
For the molecule `Cc1cc(Oc2cc(C(F)(F)F)ccn2)ccc1CCNc1ncnc2nccnc12` [Compound 129], the pest or weed control at 200 µg/mL was in the range of 80 to 100% in assay [1] (foliar), 50 to 79% in the assay on Cochliobolus sativus (foliar) and 50 to 79% in the assay on Colletotricum lagenarium (foliar). For the same molecule, the pest or weed control at 4000 ppm in assay [2] is > 80%.
`Cc1cnc2ncnc(NCCc3ccc(Oc4ccc(C(F)(F)F)cn4)cc3)c2n1` [Compound 41]: the pest or weed control at 200 µg/mL in assay [1] (foliar) lay within 80 to 100%; with Cochliobolus sativus (foliar), 0 to 49%; in the assay on Colletotricum lagenarium (foliar), 50 to 79%. In addition, the pest or weed control at 4000 ppm in assay [2] was > 80%.
Regarding `COc1cc(CCNc2ncnc3nccnc23)ccc1Oc1cc(C(C)(F)F)ccn1` [Compound 170, (2-{4-[4-(1,1-difluoroethyl)-pyridin-2-yloxy]-3-methoxyphenyl}-ethyl)-pteridin-4-yl-amine], the pest or weed control at 200 µg/mL in assay [1] (foliar) fell in the range of 80 to 100%; in the assay on Cochliobolus sativus (foliar), 0 to 49%; with Colletotricum lagenarium (foliar), 0 to 49%. Also, in assay [2], the pest or weed control at 4000 ppm was > 80%.
For the molecule `FC(F)(F)c1cccnc1Oc1ccc(CCNc2ncnc3nccnc23)cc1` [Compound 60], the pest or weed control at 200 µg/mL in assay [1] (foliar) was 80 to 100%; in the assay on Cochliobolus sativus (foliar) it was 0 to 49%; in the assay with Colletotricum lagenarium (foliar) it was 50 to 79%. The pest or weed control at 4000 ppm in assay [2] was > 80%.
`CCOC(=O)c1ccc(Oc2ccc(CCNc3ncnc4nccnc34)cc2)nc1` [Compound 137]: the pest or weed control at 200 µg/mL (in assay [1] (foliar); in the assay on Cochliobolus sativus (foliar); in the assay with Colletotricum lagenarium (foliar)) was 0 to 49% throughout. Moreover, in assay [2], the pest or weed control at 4000 ppm was > 80%.

These data come from patent publication US8895568B2, “Compositions comprising substituted pteridines as agrochemicals” (Dow AgroSciences LLC, priority 2009, dated 2014).
